Assay results reported in US11739098B2 (BRISTOL-MYERS SQUIBB COMPANY, priority 2017, dated 2023).

How the values were obtained:
Type in all cases: cell-based
human TLR7 = target: T1, human TLR7 (Homo sapiens, UniProt Q9NYK1); assay: TLR7 inhibition reporter assay (HEK-Blue cells, SEAP reporter, gardiquimod stimulation); settings: HEK-Blue cells overexpressing human TLR7, SEAP reporter, gardiquimod 7.5 μM
T1 construct: host or cells: HEK-Blue cells (HEK293-derived reporter line)
T1 sequence (Q9NYK1 27-1049): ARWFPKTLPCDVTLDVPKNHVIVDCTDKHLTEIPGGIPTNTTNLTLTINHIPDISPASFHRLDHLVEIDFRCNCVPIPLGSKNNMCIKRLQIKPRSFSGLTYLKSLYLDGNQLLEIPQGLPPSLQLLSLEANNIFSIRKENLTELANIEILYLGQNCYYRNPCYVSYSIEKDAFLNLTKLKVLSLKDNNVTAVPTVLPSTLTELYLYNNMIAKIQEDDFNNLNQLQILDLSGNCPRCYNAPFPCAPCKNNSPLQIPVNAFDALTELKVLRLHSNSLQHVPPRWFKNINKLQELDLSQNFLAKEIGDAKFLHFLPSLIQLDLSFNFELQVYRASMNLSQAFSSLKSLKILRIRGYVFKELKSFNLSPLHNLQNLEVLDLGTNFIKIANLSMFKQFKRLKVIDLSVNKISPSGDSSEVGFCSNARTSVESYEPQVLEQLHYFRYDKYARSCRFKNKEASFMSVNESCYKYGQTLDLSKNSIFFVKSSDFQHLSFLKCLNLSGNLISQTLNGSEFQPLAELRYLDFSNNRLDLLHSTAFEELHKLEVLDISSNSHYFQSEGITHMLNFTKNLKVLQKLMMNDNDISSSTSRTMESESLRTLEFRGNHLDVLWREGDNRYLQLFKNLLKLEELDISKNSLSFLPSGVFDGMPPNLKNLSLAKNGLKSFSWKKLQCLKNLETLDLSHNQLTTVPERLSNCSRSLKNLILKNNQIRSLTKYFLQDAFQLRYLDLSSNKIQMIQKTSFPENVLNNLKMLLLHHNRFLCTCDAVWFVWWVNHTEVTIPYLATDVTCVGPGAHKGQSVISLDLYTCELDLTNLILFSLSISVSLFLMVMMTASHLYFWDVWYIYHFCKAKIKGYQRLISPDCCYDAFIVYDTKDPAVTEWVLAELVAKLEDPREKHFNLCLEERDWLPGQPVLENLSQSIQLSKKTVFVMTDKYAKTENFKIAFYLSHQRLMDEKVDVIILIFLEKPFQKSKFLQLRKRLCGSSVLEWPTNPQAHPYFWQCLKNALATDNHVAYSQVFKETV
Summary of the method: (§1)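 Agonists (final): TLR7 gardiquimod 7.5 μM; TLR8 R848 15.9 μM; TLR9 ODN2006 5 nM. HEK-Blue reporter cells, 30 min RT compound pre-incubation, 0.05 nM–50 μM dose range, 22 h at 37 °C, colorimetric SEAP detection medium. % inhibition relative to agonist+DMSO and known-inhibitor wells.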

human TLR8 = target: T2, human TLR8 (Homo sapiens, UniProt Q9NR97); assay: TLR8 inhibition reporter assay (HEK-Blue cells, SEAP reporter, R848 stimulation); settings: HEK-Blue cells overexpressing human TLR8, SEAP reporter, R848 15.9 μM
T2 construct: host or cells: HEK-Blue cells (HEK293-derived reporter line)
T2 sequence (Q9NR97 27-1041): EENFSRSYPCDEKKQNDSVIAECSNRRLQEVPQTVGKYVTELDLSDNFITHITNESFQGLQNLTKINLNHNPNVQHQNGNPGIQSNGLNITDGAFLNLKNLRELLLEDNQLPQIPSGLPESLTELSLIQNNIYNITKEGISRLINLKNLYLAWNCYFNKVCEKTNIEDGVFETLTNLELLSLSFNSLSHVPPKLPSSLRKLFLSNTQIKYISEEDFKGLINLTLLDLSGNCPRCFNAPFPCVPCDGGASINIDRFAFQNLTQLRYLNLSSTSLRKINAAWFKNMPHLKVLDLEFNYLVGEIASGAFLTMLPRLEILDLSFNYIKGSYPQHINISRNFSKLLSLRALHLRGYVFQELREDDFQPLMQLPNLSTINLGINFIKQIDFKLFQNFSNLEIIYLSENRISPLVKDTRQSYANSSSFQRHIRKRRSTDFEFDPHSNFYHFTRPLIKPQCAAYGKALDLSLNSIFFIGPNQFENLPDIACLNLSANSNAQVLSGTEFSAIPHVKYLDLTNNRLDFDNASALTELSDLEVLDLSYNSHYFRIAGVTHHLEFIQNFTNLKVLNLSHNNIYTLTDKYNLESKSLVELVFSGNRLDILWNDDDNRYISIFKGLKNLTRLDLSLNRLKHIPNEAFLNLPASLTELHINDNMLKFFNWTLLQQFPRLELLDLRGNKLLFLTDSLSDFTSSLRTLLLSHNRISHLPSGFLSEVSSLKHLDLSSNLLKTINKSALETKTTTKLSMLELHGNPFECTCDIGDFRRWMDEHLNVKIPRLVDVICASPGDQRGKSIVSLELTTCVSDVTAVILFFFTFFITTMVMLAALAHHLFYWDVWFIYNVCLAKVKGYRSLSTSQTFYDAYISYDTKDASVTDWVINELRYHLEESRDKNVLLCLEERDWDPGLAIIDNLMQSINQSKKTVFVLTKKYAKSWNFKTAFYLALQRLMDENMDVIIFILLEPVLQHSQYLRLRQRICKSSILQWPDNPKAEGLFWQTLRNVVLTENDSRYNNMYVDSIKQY
Summary of the method: as §1

human TLR9 = target: T3, human TLR9 (Homo sapiens, UniProt Q9NR96); assay: TLR9 inhibition reporter assay (HEK-Blue cells, SEAP reporter, ODN2006 stimulation); settings: HEK-Blue cells overexpressing human TLR9, SEAP reporter, ODN2006 5 nM
T3 construct: host or cells: HEK-Blue cells (HEK293-derived reporter line)
T3 sequence (Q9NR96 26-1032): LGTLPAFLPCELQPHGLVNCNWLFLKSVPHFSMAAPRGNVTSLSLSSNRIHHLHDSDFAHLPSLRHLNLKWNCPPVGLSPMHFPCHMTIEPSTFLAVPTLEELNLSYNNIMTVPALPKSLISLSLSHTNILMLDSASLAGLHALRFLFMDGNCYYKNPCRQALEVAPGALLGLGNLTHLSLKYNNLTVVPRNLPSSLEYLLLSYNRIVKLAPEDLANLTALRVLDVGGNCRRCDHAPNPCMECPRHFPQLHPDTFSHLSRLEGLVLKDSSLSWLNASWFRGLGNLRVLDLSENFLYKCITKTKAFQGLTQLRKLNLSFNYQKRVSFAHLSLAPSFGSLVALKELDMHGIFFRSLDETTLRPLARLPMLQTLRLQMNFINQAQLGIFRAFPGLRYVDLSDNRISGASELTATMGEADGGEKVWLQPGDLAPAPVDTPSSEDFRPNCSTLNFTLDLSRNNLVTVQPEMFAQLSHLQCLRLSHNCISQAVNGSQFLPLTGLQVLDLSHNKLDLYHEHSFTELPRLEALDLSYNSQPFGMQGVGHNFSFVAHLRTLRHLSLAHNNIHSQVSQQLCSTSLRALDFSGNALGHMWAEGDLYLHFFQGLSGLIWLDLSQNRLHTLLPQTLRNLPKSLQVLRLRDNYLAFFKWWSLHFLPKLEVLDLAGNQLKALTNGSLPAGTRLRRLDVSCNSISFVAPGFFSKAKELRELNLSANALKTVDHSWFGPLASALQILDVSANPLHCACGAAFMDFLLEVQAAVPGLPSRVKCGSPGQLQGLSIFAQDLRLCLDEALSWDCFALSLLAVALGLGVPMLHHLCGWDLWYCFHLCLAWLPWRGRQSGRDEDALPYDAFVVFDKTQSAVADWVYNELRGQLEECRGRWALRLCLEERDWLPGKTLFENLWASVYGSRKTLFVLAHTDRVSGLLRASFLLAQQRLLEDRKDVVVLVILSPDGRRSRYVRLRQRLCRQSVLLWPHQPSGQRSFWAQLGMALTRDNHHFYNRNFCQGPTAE
Summary of the method: as §1

IC50 (human TLR7) [nM]	IC50 (human TLR8) [nM]	IC50 (human TLR9) [nM]	SMILES
< 100	100 to 1000	1000 to 50000	CC(C)NC(=O)CN1CCC(c2ccc3[nH]c(-c4ccc5nccn5c4)c(C(C)C)c3c2)CC1 [Example 402, 2-(4-(2-(imidazo[1,2-a]pyridin-6-yl)-3-isopropyl-1H-indol-5-yl)piperidin-1-yl)-N-isopropylacetamide]
100 to 1000	> 3130	1000 to 50000	CC(C)c1c(-c2cnc3[nH]c(=O)oc3c2)[nH]c2ccc(C3CCNCC3)cc12 [Example 16, 6-(3-isopropyl-5-(piperidin-4-yl)-1H-indol-2-yl)oxazolo[4,5-b]pyridin-2(3H)-one]
100 to 1000	1000 to 50000	> 50000	Cc1cn2cc(-c3[nH]c4ccc(C5CCN(C(=O)CC(C)(C)O)CC5)cc4c3CC(F)F)ccc2n1 [Example 607, 1-(4-(3-(2,2-difluoroethyl)-2-(2-methylimidazo[1,2-a]pyridin-6-yl)-1H-indol-5-yl)piperidin-1-yl)-3-hydroxy-3-methylbutan-1-one]
< 100	< 100	1000 to 50000	CNC(=O)CN1CCC(c2ccc3[nH]c(-c4cn5ccnc5c(Cl)c4C)c(C(C)C)c3c2)CC1 [Example 414, 2-(4-(2-(8-chloro-7-methylimidazo[1,2-a]pyridin-6-yl)-3-isopropyl-1H-indol-5-yl)piperidin-1-yl)-N-methylacetamide]
< 100	< 100	1000 to 50000	CNC(=O)CN1CCC(c2ccc3[nH]c(-c4cc(C)c5nccn5n4)c(C(C)C)c3c2)CC1 [Example 448, 2-(4-(3-isopropyl-2-(8-methylimidazo[1,2-b]pyridazin-6-yl)-1H-indol-5-yl)piperidin-1-yl)-N-methylacetamide]
< 100	< 100	1000 to 50000	Cc1cc(-c2[nH]c3ccc(C4CCNCC4)cc3c2C(C)C)cn2cc(C(=O)N(C)C)nc12 [Example 265, 6-(3-isopropyl-5-(piperidin-4-yl)-1H-indol-2-yl)-N,N,8-trimethylimidazo[1,2-a]pyridine-2-carboxamide]
< 100	< 100	< 100	Cc1c(-c2ccnc3[nH]ncc23)[nH]c2ccc(C3CCN(C4CCN(C(C)C)CC4)CC3)cc12 [Example 833, 4-(5-(1′-isopropyl-[1,4′-bipiperidin]-4-yl)-3-methyl-1H-indol-2-yl)-1H-pyrazolo[3,4-b]pyridine]
< 100	< 100	1000 to 50000	CC(C)c1c(-c2cn(C)c3ncccc23)[nH]c2ccc(C3CCN(CC(C)(C)O)CC3)cc12 [Example 750, 1-(4-(3-isopropyl-2-(1-methyl-1H-pyrrolo[2,3-b]pyridin-3-yl)-1H-indol-5-yl)piperidin-1-yl)-2-methylpropan-2-ol]
< 100	< 100	1000 to 50000	CCc1c(-c2ccnc3[nH]ncc23)[nH]c2ccc(C3CCN(CC(N)=O)CC3)cc12 [Example 289, 2-(4-(3-ethyl-2-(1H-pyrazolo[3,4-b]pyridin-4-yl)-1H-indol-5-yl)piperidin-1-yl)acetamide]
100 to 1000	100 to 1000	1000 to 50000	CC(C)c1c(-c2ccc3cncn3c2)[nH]c2ccc(C3CCNCC3)cc12 [Example 183, 6-(3-isopropyl-5-(piperidin-4-yl)-1H-indol-2-yl)imidazo[1,5-a]pyridine]
100 to 1000	< 100	100 to 1000	CCc1c(-c2ccnc3[nH]nc(CC)c23)[nH]c2ccc(C3CCNCC3)cc12 [Example 224, 3-ethyl-4-(3-ethyl-5-(piperidin-4-yl)-1H-indol-2-yl)-1H-pyrazolo[3,4-b]pyridine]
< 100	< 100	100 to 1000	CC(C)c1c(-c2ccc3[nH]c(=O)oc3c2)[nH]c2ccc(C3CCNCC3)cc12 [Example 10, 6-(3-isopropyl-5-(piperidin-4-yl)-1H-indol-2-yl)benzo[d]oxazol-2(3H)-one]
< 100	< 100	100 to 1000	CCOc1cc(-c2[nH]c3ccc(C4CCNCC4)cc3c2C(C)C)cc2ncnn12 [Example 157, 5-ethoxy-7-(3-isopropyl-5-(piperidin-4-yl)-1H-indol-2-yl)-[1,2,4]triazolo[1,5-a]pyridine]
< 100	100 to 1000	100 to 1000	Cc1c(-c2[nH]c3ccc(C4CCNCC4)cc3c2C(C)C)cn2ccnc2c1C(C)C [Example 273, 8-isopropyl-6-(3-isopropyl-5-(piperidin-4-yl)-1H-indol-2-yl)-7-methylimidazo[1,2-a]pyridine]
< 100	< 100	1000 to 50000	CC(C)c1c(-c2ccnc3[nH]ncc23)[nH]c2ccc(C3CCNCC3F)cc12 (stereo not drawn) [Example 171, 4-(5-(3-fluoropiperidin-4-yl)-3-isopropyl-1H-indol-2-yl)-1H-pyrazolo[3,4-b]pyridine]
